Experiments:
[1] = system: Trichophyton mentagrophytes 445; experiment: In vitro antifungal activity, MIC by microdilution (NCCLS M27-A); conditions: TM
Method: (§1) In vitro antifungal activities of the compounds were evaluated on the collection of fungal strains deposited at the Department of Biological and Medical Sciences, Faculty of Pharmacy, Charles University, Czech Republic. All the isolates were maintained on Sabouraud dextrose agar prior to being tested.
(§2) Minimum inhibitory concentrations (MICs) were determined by the microdilution format of the NCCLS M27-A guidelines. […] RPMI 1640 (Sevapharma, Prague) medium supplemented with L-glutamine and buffered with 0.165 M morpholinepropanesulfonic acid to pH 7.0 was used as the test medium. The wells of the microdilution tray contained 100 μl of the RPMI 1640 medium with 2-fold serial dilutions of the compounds (1000 to 0.24 μmol/l for the new compounds) and 100 μl of inoculum suspension. Fungal inoculum in RPMI 1640 was prepared to give a final concentration of 5×103±0.2 cfu·ml-1. The trays were incubated at 35° C. and MICs were read visually for filamentous fungi and photometrically for yeasts as an optical density (OD) at 540 nm after 24 h and 48 h. The MICs were defined as 80% inhibition of the growth of control. MICs were determined twice and in duplicate. The deviations from the usually obtained were no higher than the nearest concentration value up and down the dilution scale.

[2] = system: Candida albicans ATCC 44859; experiment: as above
[3] = system: Staphylococcus aureus CCM 4516/08; experiment: Screen against bacteria, MIC/IC80; format: cell-based; conditions: SA
[4] = system: Candida krusei E28; experiment: In vitro antifungal activity, MIC by microdilution (NCCLS M27-A)
Method: All the isolates were maintained on Sabouraud dextrose agar prior to being tested.
as §2

[5] = system: Aspergillus fumigatus 231; experiment: as above; conditions: AF
Method: as §1, §2

[6] = system: Pseudomonas aeruginosa CCM 1961; experiment: Screen against bacteria, MIC/IC80; format: cell-based; conditions: PA
[7] = system: Candida tropicalis 156; experiment: In vitro antifungal activity, MIC by microdilution (NCCLS M27-A); conditions: CT
[8] = system: Candida glabrata 20/l; experiment: as above; conditions: CG
[9] = system: Escherichia coli CCM4517; experiment: Screen against bacteria, MIC/IC80; format: cell-based; conditions: EC
[10] = system: Candida parapsilosis ATCC 22019; experiment: In vitro antifungal activity, MIC by microdilution (NCCLS M27-A); conditions: CP
[11] = system: Klebsiella pneumoniae D 11750/08; experiment: Screen against bacteria, MIC/IC80; format: cell-based; conditions: KP
[12] = system: Candida krusei ATCC 6258; experiment: In vitro antifungal activity, MIC by microdilution (NCCLS M27-A)
[13] = system: Enterococcus sp. J 14365/08; experiment: Screen against bacteria, MIC/IC80; format: cell-based; conditions: EF
[14] = system: Candida albicans ATCC 90028; experiment: In vitro antifungal activity, MIC by microdilution (NCCLS M27-A)
[15] = system: Absidia corymbifera 272; experiment: as above; conditions: AC
Method: as §1, §2

[16] = system: Staphylococcus epidermidis H 6966/08; experiment: Screen against bacteria, MIC/IC80; format: cell-based; conditions: SE
[17] = system: Klebsiella pneumoniae J 14368/08 ESBL-positive; experiment: Screen against bacteria, MIC/IC80; format: cell-based; conditions: KP-E
[18] = system: Candida lusitaniae 2446/l; experiment: In vitro antifungal activity, MIC by microdilution (NCCLS M27-A); conditions: CL
[19] = system: Staphylococcus aureus H 5996/08 Methiciline-resistant; experiment: Screen against bacteria, MIC/IC80; format: cell-based; conditions: MRSA

## CCCCCCCCOS(=O)(=O)[O-].CCOCCOC(=O)[C@@H](OC(=O)Cn1cc[n+](C)c1)c1ccccc1 [KG305, S-3-methyl-1-[1-(ethoxyethoxycarbonyl)-1-phenylmethoxycarbonylmethyl]imidazolium octyl sulphate]
[1]; 72 h
  MIC/IC80: >1000 µM
[1]; 120 h
  MIC/IC80: >1000 µM
[2]; CA1, 24 h
  MIC/IC80: >1000 µM
[2]; CA1, 48 h
  MIC/IC80: >1000 µM
[3]; 24 h
  MIC/IC80: >1000 µM
[3]; 48 h
  MIC/IC80: >1000 µM
[4]; CK2, 24 h
  MIC/IC80: >1000 µM
[4]; CK2, 48 h
  MIC/IC80: >1000 µM
[5]; 24 h
  MIC/IC80: >1000 µM
[5]; 48 h
  MIC/IC80: >1000 µM
[6]; 24 h
  MIC/IC80: >1000 µM
[6]; 48 h
  MIC/IC80: >1000 µM
[7]; 24 h
  MIC/IC80: >1000 µM
[7]; 48 h
  MIC/IC80: >1000 µM
[8]; 24 h
  MIC/IC80: >1000 µM
[8]; 48 h
  MIC/IC80: >1000 µM
[9]; 24 h
  MIC/IC80: >1000 µM
[9]; 48 h
  MIC/IC80: >1000 µM
[10]; 24 h
  MIC/IC80: >1000 µM
[10]; 48 h
  MIC/IC80: >1000 µM
[11]; 24 h
  MIC/IC80: >1000 µM
[11]; 48 h
  MIC/IC80: >1000 µM
[12]; CK1, 24 h
  MIC/IC80: >1000 µM
[12]; CK1, 48 h
  MIC/IC80: >1000 µM
[13]; 24 h
  MIC/IC80: >1000 µM
[13]; 48 h
  MIC/IC80: >1000 µM
[14]; CA2, 24 h
  MIC/IC80: >1000 µM
[14]; CA2, 48 h
  MIC/IC80: >1000 µM
[15]; 24 h
  MIC/IC80: >1000 µM
[15]; 48 h
  MIC/IC80: >1000 µM
[16]; 24 h
  MIC/IC80: >1000 µM
[16]; 48 h
  MIC/IC80: >1000 µM
[17]; 24 h
  MIC/IC80: >1000 µM
[17]; 48 h
  MIC/IC80: >1000 µM
[18]; 24 h
  MIC/IC80: >1000 µM
[18]; 48 h
  MIC/IC80: >1000 µM
[19]; 24 h
  MIC/IC80: >1000 µM
[19]; 48 h
  MIC/IC80: >1000 µM

## CCCCCCCCOS(=O)(=O)[O-].CCOCCOC(=O)C(OC(=O)Cn1cc[n+](C)c1)c1ccccc1 (centres unmarked) [KG400, RS-3-methyl-1-[1-(ethoxyethoxycarbonyl)-1-phenylmethoxycarbonylmethyl]imidazolium octyl sulphate]
[1]; 72 h
  MIC/IC80: >1000 µM
[1]; 120 h
  MIC/IC80: >1000 µM
[2]; CA1, 24 h
  MIC/IC80: >1000 µM
[2]; CA1, 48 h
  MIC/IC80: >1000 µM
[3]; 24 h
  MIC/IC80: >1000 µM
[3]; 48 h
  MIC/IC80: >1000 µM
[4]; CK2, 24 h
  MIC/IC80: >1000 µM
[4]; CK2, 48 h
  MIC/IC80: >1000 µM
[5]; 24 h
  MIC/IC80: >1000 µM
[5]; 48 h
  MIC/IC80: >1000 µM
[6]; 24 h
  MIC/IC80: >1000 µM
[6]; 48 h
  MIC/IC80: >1000 µM
[7]; 24 h
  MIC/IC80: >1000 µM
[7]; 48 h
  MIC/IC80: >1000 µM
[8]; 24 h
  MIC/IC80: >1000 µM
[8]; 48 h
  MIC/IC80: >1000 µM
[9]; 24 h
  MIC/IC80: >1000 µM
[9]; 48 h
  MIC/IC80: >1000 µM
[10]; 24 h
  MIC/IC80: >1000 µM
[10]; 48 h
  MIC/IC80: >1000 µM
[11]; 24 h
  MIC/IC80: >1000 µM
[11]; 48 h
  MIC/IC80: >1000 µM
[12]; CK1, 24 h
  MIC/IC80: >1000 µM
[12]; CK1, 48 h
  MIC/IC80: >1000 µM
[13]; 24 h
  MIC/IC80: >1000 µM
[13]; 48 h
  MIC/IC80: >1000 µM
[14]; CA2, 24 h
  MIC/IC80: >1000 µM
[14]; CA2, 48 h
  MIC/IC80: >1000 µM
[15]; 24 h
  MIC/IC80: >1000 µM
[15]; 48 h
  MIC/IC80: >1000 µM
[16]; 24 h
  MIC/IC80: >1000 µM
[16]; 48 h
  MIC/IC80: >1000 µM
[17]; 24 h
  MIC/IC80: >1000 µM
[17]; 48 h
  MIC/IC80: >1000 µM
[18]; 24 h
  MIC/IC80: >1000 µM
[18]; 48 h
  MIC/IC80: >1000 µM
[19]; 24 h
  MIC/IC80: >1000 µM
[19]; 48 h
  MIC/IC80: >1000 µM

## CCCCCOC(=O)C(OC(=O)Cn1cc[n+](C)c1)c1ccccc1.[Br-] (centres unmarked) [KG816, RS-3-methyl-1-[1-(pentoxycarbonyl)-1-phenylmethoxycarbonylmethyl]imidazolium bromide]
[1]; 72 h
  MIC/IC80: 500 µM
[1]; 120 h
  MIC/IC80: 500 µM
[2]; CA1, 24 h
  MIC/IC80: 500 µM
[2]; CA1, 48 h
  MIC/IC80: 1000 µM
[3]; 24 h
  MIC/IC80: 1000 µM
[3]; 48 h
  MIC/IC80: 1000 µM
[4]; CK2, 24 h
  MIC/IC80: 1000 µM
[4]; CK2, 48 h
  MIC/IC80: >1000 µM
[5]; 24 h
  MIC/IC80: 1000 µM
[5]; 48 h
  MIC/IC80: 1000 µM
[6]; 24 h
  MIC/IC80: >1000 µM
[6]; 48 h
  MIC/IC80: >1000 µM
[7]; 24 h
  MIC/IC80: 1000 µM
[7]; 48 h
  MIC/IC80: >1000 µM
[8]; 24 h
  MIC/IC80: 1000 µM
[8]; 48 h
  MIC/IC80: 1000 µM
[9]; 24 h
  MIC/IC80: >1000 µM
[9]; 48 h
  MIC/IC80: >1000 µM
[10]; 24 h
  MIC/IC80: >1000 µM
[10]; 48 h
  MIC/IC80: >1000 µM
[11]; 24 h
  MIC/IC80: >1000 µM
[11]; 48 h
  MIC/IC80: >1000 µM
[12]; CK1, 24 h
  MIC/IC80: 1000 µM
[12]; CK1, 48 h
  MIC/IC80: 1000 µM
[13]; 24 h
  MIC/IC80: >1000 µM
[13]; 48 h
  MIC/IC80: >1000 µM
[14]; CA2, 24 h
  MIC/IC80: 1000 µM
[14]; CA2, 48 h
  MIC/IC80: >1000 µM
[15]; 24 h
  MIC/IC80: 1000 µM
[15]; 48 h
  MIC/IC80: 1000 µM
[16]; 24 h
  MIC/IC80: >1000 µM
[16]; 48 h
  MIC/IC80: >1000 µM
[17]; 24 h
  MIC/IC80: >1000 µM
[17]; 48 h
  MIC/IC80: >1000 µM
[18]; 24 h
  MIC/IC80: >1000 µM
[18]; 48 h
  MIC/IC80: >1000 µM
[19]; 24 h
  MIC/IC80: >1000 µM
[19]; 48 h
  MIC/IC80: >1000 µM

## CCOCCOC(=O)C(OC(=O)Cn1cc[n+](C)c1)c1ccccc1.[Br-] (centres unmarked) [KG818, RS-3-methyl-1-[1-(ethoxyethoxycarbonyl)-1-phenylmethoxycarbonylmethyl]imidazolium bromide]
[1]; 72 h
  MIC/IC80: >1000 µM
[1]; 120 h
  MIC/IC80: >1000 µM
[2]; CA1, 24 h
  MIC/IC80: >1000 µM
[2]; CA1, 48 h
  MIC/IC80: >1000 µM
[3]; 24 h
  MIC/IC80: >1000 µM
[3]; 48 h
  MIC/IC80: >1000 µM
[4]; CK2, 24 h
  MIC/IC80: >1000 µM
[4]; CK2, 48 h
  MIC/IC80: >1000 µM
[5]; 24 h
  MIC/IC80: >1000 µM
[5]; 48 h
  MIC/IC80: >1000 µM
[6]; 24 h
  MIC/IC80: >1000 µM
[6]; 48 h
  MIC/IC80: >1000 µM
[7]; 24 h
  MIC/IC80: >1000 µM
[7]; 48 h
  MIC/IC80: >1000 µM
[8]; 24 h
  MIC/IC80: >1000 µM
[8]; 48 h
  MIC/IC80: >1000 µM
[9]; 24 h
  MIC/IC80: >1000 µM
[9]; 48 h
  MIC/IC80: >1000 µM
[10]; 24 h
  MIC/IC80: >1000 µM
[10]; 48 h
  MIC/IC80: >1000 µM
[11]; 24 h
  MIC/IC80: >1000 µM
[11]; 48 h
  MIC/IC80: >1000 µM
[12]; CK1, 24 h
  MIC/IC80: >1000 µM
[12]; CK1, 48 h
  MIC/IC80: >1000 µM
[13]; 24 h
  MIC/IC80: >1000 µM
[13]; 48 h
  MIC/IC80: >1000 µM
[14]; CA2, 24 h
  MIC/IC80: >1000 µM
[14]; CA2, 48 h
  MIC/IC80: >1000 µM
[15]; 24 h
  MIC/IC80: >1000 µM
[15]; 48 h
  MIC/IC80: >1000 µM
[16]; 24 h
  MIC/IC80: >1000 µM
[16]; 48 h
  MIC/IC80: >1000 µM
[17]; 24 h
  MIC/IC80: >1000 µM
[17]; 48 h
  MIC/IC80: >1000 µM
[18]; 24 h
  MIC/IC80: >1000 µM
[18]; 48 h
  MIC/IC80: >1000 µM
[19]; 24 h
  MIC/IC80: >1000 µM
[19]; 48 h
  MIC/IC80: >1000 µM
